The results in this text go back to patent US6693072B2, “Elastase inhibitors” (Aventis Pharmaceuticals Inc., priority 1994, dated 2004).

In assay [1] the target is T1, human neutrophil elastase (Homo sapiens, UniProt P08246).
T1 construct: Enzyme is purified from human sputum, although recently it has become commercially available; from tissue; host or cells: human sputum
T1 sequence (P08246 30-247 limits assumed): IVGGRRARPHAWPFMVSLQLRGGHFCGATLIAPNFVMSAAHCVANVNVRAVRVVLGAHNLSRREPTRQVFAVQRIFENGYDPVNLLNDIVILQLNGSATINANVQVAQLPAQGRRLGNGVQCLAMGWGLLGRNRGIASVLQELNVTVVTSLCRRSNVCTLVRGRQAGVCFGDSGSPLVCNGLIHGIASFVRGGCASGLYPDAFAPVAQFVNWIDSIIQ
Put plainly: Human neutrophil elastase in vitro inhibition assay, N-MeOSuc-Ala-Ala-Pro-Val-p-nitroanilide substrate. The class given is biochemical. Conditions: for human neutrophil elastase, using N-MeOSucAlaAlaProVal-pNA as substrate; enzyme purified from human sputum. The protocol: Human neutrophil elastase is assayed in vitro using N-MeOSuc-[…]-nitroanilide, available commercially, as substrate. The assay buffer, pH and assay techniques are similar to those described by Mehdi, et al., Biochemical and Biophysical Research Communications, 166, 595 (1990). Enzyme is purified from human sputum, although recently it has become commercially available. Kinetic characterization of immediate inhibitors is by means of the Dixon plot, whereas the characterization of slow- and/or tight-binding inhibitors used data analysis techniques reviewed by Williams and Morrison. The synthesis and analytical use of a highly sensitive and convenient substrate of elastase is described in J. Bieth, B. Spiess and C. G. Wermuth, Biochemical Medicine, 11 (1974)350-375.

Assay [2] concerns the target human neutrophil elastase (human) (UniProt P08246). Put plainly: in vitro enzyme inhibition kinetics of human neutrophil elastase, substrate N-MeOSuc-Ala-Ala-Pro-Val-p-nitroanilide.

Usually Ki stands for the dissociation constant of the complex between target and ligand, obtained from inhibition or displacement. `CC(C)C(NC(=O)C1CCCCN1C(=O)[C@@H](NC(=O)c1ccc(C(=O)N2CCOCC2)cc1)C(C)C)C(=O)C(F)(F)C(F)(F)F` (mixture of isomers) [MDL 105,759, N-[4-(4-morpholinylcarbonyl)benzoyl]-L-valyl-N′-[3,3,4,4,4-pentafluoro-1-(1-methylethyl)-2-oxobutyl]-D,L-2-pipecolinamide] showed a Ki in assay [1] of 150 nM.

“N-[4-(4-morpholinylcarbonyl)benzoyl]-L-valyl-N'-[3,3,4,4,4-pentafluoro-1-(1-methylethyl)-2-oxobutyl]-trans-4-acetoxyprolinamide (peptide)” showed an inhibitory constant (Ki) in assay [2] of 40 nM.

For the molecule `CC(C)C(NC(=O)[C@H]1CCN1C(=O)[C@@H](NC(=O)c1ccc(C(=O)N2CCOCC2)cc1)C(C)C)C(=O)C(F)(F)C(F)(F)F` (stereo partly drawn) [MDL 104,238, N-[4-(4-morpholinylcarbonyl)benzoyl]-L-valyl-N′-[3,3,4,4,4-pentafluoro-1-(1-methylethyl)-2-oxobutyl]-L-2-azetamide], the Ki in assay [1] was 34 nM.

With `CC(C)C(NC(=O)[C@H]1C[C@@H](OCc2ccccc2)CN1C(=O)[C@@H](NC(=O)c1ccc(C(=O)N2CCOCC2)cc1)C(C)C)C(=O)C(F)(F)C(F)(F)F` (stereo partly drawn) [MDL 104,865, N-[4-(4-morpholinylcarbonyl)benzoyl]-L-valyl-N′-[3,3,4,4,4-pentafluoro-1-(1-methylethyl)-2-oxobutyl]-trans-4-benzyloxyprolinamide], the Ki in assay [1] stood at 20 nM.
